We go through ten compounds from US10526316B2, “Quinoxaline and pyridopyrazine derivatives as PI3Kβ inhibitors” (Janssen Pharmaceutica NV, priority 2015, dated 2020).

Molecules are shown by their SMILES. Where two headings read alike, the source gives them in different places.

One assay concerns the target T1, PI3Kβ (Homo sapiens, UniProt P42338).
T1 construct: purchased DiscoveRx Corporation, San Diego (contract service, KINOMEscan)
Put plainly: Enzyme binding assay (KINOMEscan, DiscoveRx). The following applies: PIK3Cβ_h, read-out: Kd PIK3Cβ_h. In short, it runs like this:
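Kinase binding affinities were measured with KINOMEscan technology. Results are given as Kd, the inhibitor binding constant, in nM.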

The next assay has as its target T2, PI3Kδ (Homo sapiens, UniProt O00329).
T2 construct: purchased DiscoveRx Corporation, San Diego (contract service, KINOMEscan)
T2 sequence (O00329 1-1044): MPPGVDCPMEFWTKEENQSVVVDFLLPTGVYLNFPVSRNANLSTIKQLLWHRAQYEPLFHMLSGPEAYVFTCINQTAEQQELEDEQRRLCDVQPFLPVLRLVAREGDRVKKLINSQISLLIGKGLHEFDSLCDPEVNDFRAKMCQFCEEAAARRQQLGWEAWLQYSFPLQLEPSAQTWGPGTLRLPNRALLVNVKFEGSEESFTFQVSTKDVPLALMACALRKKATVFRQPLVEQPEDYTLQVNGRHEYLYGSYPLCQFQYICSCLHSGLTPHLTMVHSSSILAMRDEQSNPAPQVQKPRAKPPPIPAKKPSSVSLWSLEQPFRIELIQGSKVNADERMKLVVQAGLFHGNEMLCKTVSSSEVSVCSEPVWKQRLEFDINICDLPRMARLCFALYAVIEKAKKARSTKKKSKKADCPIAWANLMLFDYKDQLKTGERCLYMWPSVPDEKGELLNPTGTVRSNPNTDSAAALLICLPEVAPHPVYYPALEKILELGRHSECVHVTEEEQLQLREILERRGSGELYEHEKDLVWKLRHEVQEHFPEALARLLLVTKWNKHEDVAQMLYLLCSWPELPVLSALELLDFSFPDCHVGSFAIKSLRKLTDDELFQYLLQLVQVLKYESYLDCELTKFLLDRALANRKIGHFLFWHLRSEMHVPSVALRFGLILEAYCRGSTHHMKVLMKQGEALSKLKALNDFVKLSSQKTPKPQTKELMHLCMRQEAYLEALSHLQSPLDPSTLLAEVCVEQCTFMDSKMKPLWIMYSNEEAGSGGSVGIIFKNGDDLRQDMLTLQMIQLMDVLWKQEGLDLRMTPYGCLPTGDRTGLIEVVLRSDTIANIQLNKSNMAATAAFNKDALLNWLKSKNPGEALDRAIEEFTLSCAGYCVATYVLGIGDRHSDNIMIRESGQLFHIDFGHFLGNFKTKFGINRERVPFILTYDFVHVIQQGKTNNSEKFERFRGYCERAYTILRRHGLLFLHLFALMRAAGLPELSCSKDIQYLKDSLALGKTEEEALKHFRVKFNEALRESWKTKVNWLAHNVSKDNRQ
The assay is described as follows: Enzyme binding assay (KINOMEscan, DiscoveRx). Particulars: PIK3Cδ_h. In short, it runs like this:
(§1)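 Binding affinities were measured on the KINOMEscan platform.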

Assay [1] addresses T3, kinase enzymes (Homo sapiens, UniProt P42336).
T3 construct: purchased DiscoveRx Corporation, San Diego (contract service, KINOMEscan)
The assay is described as follows: Enzyme binding assay (KINOMEscan, DiscoveRx), further kinases of Table A. The following applies: PIK3Cα_h. In short, it runs like this: as §1

Assay [2] concerns the target T4, kinase enzymes (Homo sapiens, UniProt P48736).
T4 construct: purchased DiscoveRx Corporation, San Diego (contract service, KINOMEscan)
Described as above. Particulars: PIK3Cγ_h. In short, it runs like this:
as §1

The target of assay [3] is T5, kinase enzymes (Homo sapiens, UniProt P42345).
T5 construct: purchased DiscoveRx Corporation, San Diego (contract service, KINOMEscan)
The assay is described as above. The following applies: MTOR_h. The method in brief:
as §1

The subject of assay [4] is Akt phosphorylated at Thr308 in PC-3 cells. Put plainly: Cellular assay: phosphorylation of Akt at Thr308 in PC-3 cells (MSD ELISA). In kind it is cell-based. Particulars: PC-3 cells, 60 min compound incubation, MSD ELISA, read-out: IC50 pAkt_Thr308. The method in brief: (§2)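 Phospho-Akt in whole-cell lysates is quantified by electrochemiluminescent immunoassay using phospho-site capture and total-Akt detection antibodies.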
For orientation: ELISA stands for enzyme-linked immunosorbent assay.

Assay [5] concerns Akt phosphorylated at Ser473 in PC-3 cells. Put plainly: Cellular assay: phosphorylation of Akt at Ser473 in PC-3 cells (MSD ELISA). In kind it is cell-based. Particulars: PC-3 cells, 60 min compound incubation, MSD ELISA, read-out: IC50 pAkt_S473. In short, it runs like this: as §2

T3 sequence (P42336 whole entry): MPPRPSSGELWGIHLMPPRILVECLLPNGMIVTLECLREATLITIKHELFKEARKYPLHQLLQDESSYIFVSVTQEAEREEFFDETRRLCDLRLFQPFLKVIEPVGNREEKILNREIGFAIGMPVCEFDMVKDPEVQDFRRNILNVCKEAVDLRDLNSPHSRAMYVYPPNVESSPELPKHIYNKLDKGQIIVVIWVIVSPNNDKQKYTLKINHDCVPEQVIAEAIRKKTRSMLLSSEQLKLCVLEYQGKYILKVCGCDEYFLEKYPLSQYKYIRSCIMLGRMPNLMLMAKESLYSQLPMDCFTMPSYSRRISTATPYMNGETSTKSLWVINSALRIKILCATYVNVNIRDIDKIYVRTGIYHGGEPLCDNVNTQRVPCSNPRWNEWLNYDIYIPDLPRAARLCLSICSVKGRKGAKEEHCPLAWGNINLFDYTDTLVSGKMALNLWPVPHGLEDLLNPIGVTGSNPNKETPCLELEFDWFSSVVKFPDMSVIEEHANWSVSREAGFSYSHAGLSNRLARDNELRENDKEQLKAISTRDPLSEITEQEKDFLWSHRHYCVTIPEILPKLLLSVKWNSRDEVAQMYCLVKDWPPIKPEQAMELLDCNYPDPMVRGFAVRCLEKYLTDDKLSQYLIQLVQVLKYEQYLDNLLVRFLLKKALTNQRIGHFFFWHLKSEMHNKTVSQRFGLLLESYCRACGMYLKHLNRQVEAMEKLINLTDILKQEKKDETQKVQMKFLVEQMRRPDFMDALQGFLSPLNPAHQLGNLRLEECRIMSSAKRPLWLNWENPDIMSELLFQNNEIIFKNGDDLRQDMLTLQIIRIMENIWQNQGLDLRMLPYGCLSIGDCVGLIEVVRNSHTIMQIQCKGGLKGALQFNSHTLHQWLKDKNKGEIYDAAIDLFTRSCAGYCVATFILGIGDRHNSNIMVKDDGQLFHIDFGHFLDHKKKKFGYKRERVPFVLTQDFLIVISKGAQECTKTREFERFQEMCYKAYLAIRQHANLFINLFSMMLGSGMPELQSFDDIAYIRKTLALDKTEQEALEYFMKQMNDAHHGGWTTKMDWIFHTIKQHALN
T4 sequence (P48736 whole entry): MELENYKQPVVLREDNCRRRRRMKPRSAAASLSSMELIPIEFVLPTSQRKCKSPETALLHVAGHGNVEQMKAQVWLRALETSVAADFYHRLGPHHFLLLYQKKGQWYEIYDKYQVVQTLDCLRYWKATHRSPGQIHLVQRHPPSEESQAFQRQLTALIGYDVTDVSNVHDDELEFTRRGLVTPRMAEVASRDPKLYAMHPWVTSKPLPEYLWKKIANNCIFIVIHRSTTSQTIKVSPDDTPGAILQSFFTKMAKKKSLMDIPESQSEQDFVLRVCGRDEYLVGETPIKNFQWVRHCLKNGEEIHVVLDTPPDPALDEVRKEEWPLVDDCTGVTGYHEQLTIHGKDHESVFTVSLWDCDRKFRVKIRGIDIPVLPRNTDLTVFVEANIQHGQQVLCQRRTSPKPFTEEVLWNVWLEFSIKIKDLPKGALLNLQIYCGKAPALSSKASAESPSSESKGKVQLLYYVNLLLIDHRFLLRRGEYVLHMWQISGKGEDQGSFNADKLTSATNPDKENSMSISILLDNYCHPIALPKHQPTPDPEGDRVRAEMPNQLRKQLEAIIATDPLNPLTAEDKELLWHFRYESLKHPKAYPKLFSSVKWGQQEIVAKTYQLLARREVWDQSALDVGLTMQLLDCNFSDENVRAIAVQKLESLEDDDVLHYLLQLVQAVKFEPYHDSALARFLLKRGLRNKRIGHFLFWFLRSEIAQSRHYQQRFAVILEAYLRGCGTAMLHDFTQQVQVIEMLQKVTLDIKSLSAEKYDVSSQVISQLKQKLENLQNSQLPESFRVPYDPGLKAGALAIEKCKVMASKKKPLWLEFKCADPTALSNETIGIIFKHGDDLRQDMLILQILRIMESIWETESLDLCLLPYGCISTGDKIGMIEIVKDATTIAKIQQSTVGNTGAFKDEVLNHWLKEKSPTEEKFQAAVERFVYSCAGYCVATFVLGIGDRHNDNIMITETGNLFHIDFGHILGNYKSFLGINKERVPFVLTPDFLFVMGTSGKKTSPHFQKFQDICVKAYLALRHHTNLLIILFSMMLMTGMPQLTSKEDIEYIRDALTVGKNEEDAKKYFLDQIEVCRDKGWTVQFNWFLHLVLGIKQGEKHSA
T1 sequence (P42338 whole entry): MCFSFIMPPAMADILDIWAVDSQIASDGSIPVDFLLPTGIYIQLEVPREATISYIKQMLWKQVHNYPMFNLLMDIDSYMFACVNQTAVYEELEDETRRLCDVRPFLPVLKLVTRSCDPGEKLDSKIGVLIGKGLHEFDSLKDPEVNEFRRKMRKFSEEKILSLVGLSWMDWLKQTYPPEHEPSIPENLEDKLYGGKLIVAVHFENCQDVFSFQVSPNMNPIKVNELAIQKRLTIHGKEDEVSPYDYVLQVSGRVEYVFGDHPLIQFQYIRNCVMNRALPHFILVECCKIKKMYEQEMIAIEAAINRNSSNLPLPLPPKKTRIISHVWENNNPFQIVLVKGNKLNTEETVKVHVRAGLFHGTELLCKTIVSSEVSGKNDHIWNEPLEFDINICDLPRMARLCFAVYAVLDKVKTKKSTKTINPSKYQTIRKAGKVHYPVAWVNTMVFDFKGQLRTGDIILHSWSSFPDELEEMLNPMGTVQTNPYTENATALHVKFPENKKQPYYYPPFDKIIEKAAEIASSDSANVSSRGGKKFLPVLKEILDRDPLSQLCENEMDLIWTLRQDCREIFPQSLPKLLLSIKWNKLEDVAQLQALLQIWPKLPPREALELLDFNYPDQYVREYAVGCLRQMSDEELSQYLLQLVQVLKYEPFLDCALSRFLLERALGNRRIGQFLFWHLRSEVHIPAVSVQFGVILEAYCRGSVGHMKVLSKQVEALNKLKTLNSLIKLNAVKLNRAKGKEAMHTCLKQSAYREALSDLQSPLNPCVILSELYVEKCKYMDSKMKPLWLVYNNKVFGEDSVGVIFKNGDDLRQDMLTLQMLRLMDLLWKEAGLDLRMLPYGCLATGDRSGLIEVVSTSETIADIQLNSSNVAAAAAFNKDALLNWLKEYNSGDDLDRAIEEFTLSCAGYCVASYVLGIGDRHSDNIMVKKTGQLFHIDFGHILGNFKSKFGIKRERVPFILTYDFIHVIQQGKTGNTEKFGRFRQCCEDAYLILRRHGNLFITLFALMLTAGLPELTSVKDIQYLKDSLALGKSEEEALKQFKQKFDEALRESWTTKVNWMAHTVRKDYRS

In general, Kd refers to the equilibrium constant for the complex coming apart. A word on the IC50: it is the concentration that gives 50% inhibition. As to `CC(C)N1CCCN(C(=O)c2cc(N(C)Cc3cc(F)cc(F)c3)c3nc(N4CCOCC4)cnc3c2)CC1` [Compound 373], the dissociation constant (Kd) at PI3Kβ is 158 nM; at PI3Kδ, 5250 nM; on kinase enzymes [1], over 30200 nM; on kinase enzymes [2], over 30200 nM; on kinase enzymes [3], over 30200 nM. In addition, the IC50 was over 513 nM in assay [4] (Homo sapiens, PC-3, 1 h) and over 513 nM in assay [5] (Homo sapiens, PC-3, 1 h).
Turning to `CC(Nc1cc(F)cc(F)c1)c1cc(-c2cc[nH]n2)cc2ncc(N3CCOCC3)nc12` (stereo not shown) [Compound 304], the Kd was 62 nM on PI3Kβ; 6760 nM on PI3Kδ; 7240 nM on kinase enzymes [1]; 20000 nM at kinase enzymes [2]; over 30200 nM at kinase enzymes [3]. Also, the IC50 in assay [4] (Homo sapiens, PC-3, 1 h) is 295 nM; in assay [5] (Homo sapiens, PC-3, 1 h) it was over 513 nM.
As to `CC(C)NCCNC(=O)c1cc(C(C)Nc2cccc(F)c2)c2nc(N3CCOCC3)cnc2c1` (single isomer, unassigned) [Compound 228], the Kd on PI3Kβ was 603 nM; at PI3Kδ it was 15500 nM; at kinase enzymes [1], 6170 nM; at kinase enzymes [2], 4070 nM; on kinase enzymes [3] it was over 30200 nM. The half-maximal inhibitory concentration (IC50) is 347 nM in assay [4] and over 513 nM in assay [5].
With `Cc1c(F)cccc1CN(C)c1cc(C(=O)N(C)CCNC(C)C)cc2ncc(N3CCOCC3)nc12` [Compound 386], the Kd at PI3Kβ was determined as 15 nM; on PI3Kδ it was 692 nM; on kinase enzymes [1], 3240 nM; at kinase enzymes [2], 14800 nM; on kinase enzymes [3], 24500 nM. For the same compound, the 50% inhibitory concentration (IC50) in assay [4] (Homo sapiens, PC-3, 1 h) is over 513 nM; in assay [5] (Homo sapiens, PC-3, 1 h), over 513 nM.
Turning to `CNCCNC(=O)c1cc(C(C)Oc2ccc(Cl)c(F)c2)c2nc(N3CCOCC3)cnc2c1` (single isomer, unassigned) [Compound 380b], the Kd on PI3Kβ was determined as 5 nM; on PI3Kδ, 1200 nM; at kinase enzymes [1] it was 3800 nM; on kinase enzymes [2], 8910 nM; at kinase enzymes [3], 18600 nM. The IC50 was over 513 nM in assay [4] (Homo sapiens, PC-3, 1 h) and over 513 nM in assay [5] (Homo sapiens, PC-3, 1 h).
For `CC(Nc1cc(F)cc(F)c1)c1cc(C(=O)NS(N)(=O)=O)cc2ncc(N3CCOCC3)nc12` (stereo not shown) [Compound 243], the Kd at PI3Kβ was determined as 1 nM; on PI3Kδ it was 71 nM; at kinase enzymes [1], 66 nM; on kinase enzymes [2] it was 145 nM; at kinase enzymes [3], 1910 nM. The IC50 is over 513 nM in assay [4] (Homo sapiens, PC-3, 1 h) and over 513 nM in assay [5] (Homo sapiens, PC-3, 1 h).
Take `CC(Oc1cc(F)c(F)c(F)c1)c1cc(C(=O)N(C)C2CCNC2)cc2ncc(N3CCOCC3)nc12` (single isomer, unassigned) [Compound 404b]: the Kd was 1 nM on PI3Kβ; 1070 nM at PI3Kδ; 5250 nM at kinase enzymes [1]; 16600 nM on kinase enzymes [2]; over 30200 nM on kinase enzymes [3]. Besides, the IC50 was 295 nM in assay [4] and 398 nM in assay [5].
With `CC(Oc1ccc(F)c(F)c1)c1cc(C(=O)N2CC[C@@H](N(C)C)C2)cc2ncc(N3CCOCC3)nc12` (single isomer, unassigned) [Compound 298b], the Kd was 186 nM at PI3Kβ; 10200 nM on PI3Kδ; 24000 nM at kinase enzymes [1]; over 30200 nM at kinase enzymes [2]; over 30200 nM at kinase enzymes [3]. Also, the IC50 in assay [4] is over 513 nM; in assay [5], 501 nM.
With `CN[C@H]1CCN(C(=O)c2cc(C(C)Oc3cc(F)c(F)c(F)c3)c3nc(N4CCOCC4)cnc3c2)C1` (single isomer, unassigned) [Compound 405a], the Kd was 501 nM on PI3Kβ; 7410 nM on PI3Kδ; over 30200 nM on kinase enzymes [1]; over 30200 nM at kinase enzymes [2]; over 30200 nM on kinase enzymes [3]. Further, the IC50 in assay [4] and in assay [5] was over 513 nM in each case.
As to `CC(Nc1cc(F)cc(F)c1)c1cc(C(=O)O)cc2ncc(N3CCOCC3)nc12` (stereo not shown) [Compound 236], the Kd came out at 2 nM at PI3Kβ; 158 nM at PI3Kδ; 112 nM on kinase enzymes [1]; 813 nM at kinase enzymes [2]; 1320 nM at kinase enzymes [3]. The IC50 in assay [4] (Homo sapiens, PC-3, 1 h) is over 513 nM; in assay [5] (Homo sapiens, PC-3, 1 h), over 513 nM.
